Results as given in ChEMBL document CHEMBL2203009, “Synthesis of isoindole and benzoisoindole derivatives of teicoplanin pseudoaglycon with remarkable antibacterial and antiviral activities” (Bioorg Med Chem Lett, 2012).
Values after ≈ are worked out from the molar mass of the structure shown.

Legend:
Vaccinia virus = experiment: Antiviral activity against Vaccinia virus infected in HEL cells assessed as inhibition of virus-induced cytopathic effect; assay type: functional, organism-based; conditions: Orthopoxvirus vaccinia
Influenza A virus = experiment: Antiviral activity against Influenza A virus (A/Puerto Rico/8/1934(H1N1)) H1N1 infected in MDCK cells assessed as inhibition of virus-induced cytopathic effect; assay type: functional, organism-based
Enterococcus faecalis [1] = experiment: Antimicrobial activity against Enterococcus faecalis 15376 over-expressing vanA; assay type: functional
H3N2 subtype = experiment: Antiviral activity against Influenza A virus (A/Hong Kong/7/1987(H3N2)) […] infected in MDCK cells assessed as inhibition of virus-induced cytopathic effect; assay type: functional, organism-based
Human alphaherpesvirus 1 [2] = experiment: Antiviral activity against HSV1 KOS infected in HEL cells assessed as inhibition of virus-induced cytopathic effect; assay type: functional, organism-based; conditions: Human alphaherpesvirus 1, KOS
Influenza B virus = experiment: Antiviral activity against Influenza B virus (B/Hong Kong/05/1972) […] infected in MDCK cells assessed as inhibition of virus-induced cytopathic effect; assay type: functional, cell-based; conditions: B/Hong Kong/05/1972, MDCK
[3] = system: Vesicular stomatitis virus; experiment: Antiviral activity against Vesicular stomatitis virus infected in HEL cells assessed as inhibition of virus-induced cytopathic effect; assay type: functional, organism-based
Human alphaherpesvirus 1 [4] = experiment: Antiviral activity against thymidine kinase deficient and acyclovir-resistant HSV1 KOS infected in HEL cells assessed as inhibition of virus-induced cytopathic effect; assay type: functional, organism-based; conditions: Human alphaherpesvirus 1, KOS
Staphylococcus aureus [5] = experiment: Antimicrobial activity against methicillin-sensitive Staphylococcus aureus ATCC 29213; assay type: functional
Bacillus subtilis = experiment: Antimicrobial activity against Bacillus subtilis ATCC 6633; assay type: functional
Enterococcus faecalis [6] = experiment: Antimicrobial activity against Enterococcus faecalis ATCC 29212; assay type: functional
Enterococcus faecalis [7] = experiment: Antimicrobial activity against Enterococcus faecalis ATCC 51299 over-expressing vanB; assay type: functional
[8] = system: Staphylococcus epidermidis; experiment: Antimicrobial activity against Staphylococcus epidermidis ATCC 35984 biofilms; assay type: functional
[9] = system: Staphylococcus epidermidis; experiment: Antimicrobial activity against Staphylococcus epidermidis over-expressing MecA; assay type: functional
Staphylococcus aureus [10] = experiment: Antimicrobial activity against methicillin-resistant Staphylococcus aureus ATCC 33591; assay type: functional
[11] = Toxicity in HEL cells assessed as induction of cell morphology changes; assay type: cell-based; conditions: human
Human alphaherpesvirus 2 = experiment: Antiviral activity against HSV2 G infected in HEL cells assessed as inhibition of virus-induced cytopathic effect; assay type: functional, organism-based; conditions: Human alphaherpesvirus 2, strain G
[12] = Toxicity in MDCK cells assessed as induction of cell morphology changes; assay type: cell-based, Canis lupus familiaris; conditions: dog

Row | SMILES | EC50 (Vaccinia virus) [µM] | EC50 (Influenza A virus) [µM] | MBC (Enterococcus faecalis [1]) [µg/mL] | MIC (Enterococcus faecalis [1]) [µg/mL] | EC50 (H3N2 subtype) [µM] | EC50 (Human alphaherpesvirus 1 [2]) [µM] | EC50 (Influenza B virus) [µM] | EC50 [3] [µM] | EC50 (Human alphaherpesvirus 1 [4]) [µM] | MBC (Staphylococcus aureus [5]) [µg/mL] | MIC (Staphylococcus aureus [5]) [µg/mL] | MBC (Bacillus subtilis) [µg/mL] | MIC (Bacillus subtilis) [µg/mL] | MBC (Enterococcus faecalis [6]) [µg/mL] | MIC (Enterococcus faecalis [6]) [µg/mL] | MBC (Enterococcus faecalis [7]) [µg/mL] | MIC (Enterococcus faecalis [7]) [µg/mL] | MBC [8] [µg/mL] | MIC [8] [µg/mL] | MBC [9] [µg/mL] | other results
1 | CC(=O)N[C@H]1[C@H](O[C@@H]2c3ccc(c(Cl)c3)Oc3cc4cc(c3O)Oc3ccc(cc3Cl)C[C@H]3NC(=O)[C@H](n5cc6cc7ccccc7cc6c5Sc5ccccc5)c5ccc(O)c(c5)Oc5cc(O)cc(c5)[C@H](NC3=O)C(=O)N[C@H]4C(=O)N[C@H]3C(=O)N[C@@H]2C(=O)N[C@H](C(=O)O)c2cc(O)cc(O)c2-c2cc3ccc2O)O[C@H](CO)[C@@H](O)[C@@H]1O | > 20 | > 100 | 32 (≈ 19.3 µM) | 0.125 (≈ 0.0753 µM) | > 100 | > 20 | > 100 | > 20 | > 20 | 1 (≈ 0.602 µM) | 0.0313 (≈ 0.0189 µM) | 4 (≈ 2.41 µM) | 2 (≈ 1.2 µM) | 256 (≈ 154 µM) | 1 (≈ 0.602 µM) | 256 (≈ 154 µM) | 2 (≈ 1.2 µM) | 0.5 (≈ 0.301 µM) | 0.0313 (≈ 0.0189 µM) | 256 (≈ 154 µM) | MIC [9]: 0.0313 µg/mL (≈ 0.0189 µM); MBC (Staphylococcus aureus [10]): 0.5 µg/mL (≈ 0.301 µM); MIC (Staphylococcus aureus [10]): 0.25 µg/mL (≈ 0.151 µM); MCC [11]: 100 µM; EC50 (Human alphaherpesvirus 2): > 20 µM; MCC [12]: < 800 nM
2 | CC(=O)N[C@H]1[C@H](O[C@@H]2c3ccc(c(Cl)c3)Oc3cc4cc(c3O)Oc3ccc(cc3Cl)C[C@H]3NC(=O)[C@H](n5cc6ccccc6c5S[C@@H]5O[C@H](CO)[C@@H](O)[C@H](O)[C@H]5O)c5ccc(O)c(c5)Oc5cc(O)cc(c5)[C@H](NC3=O)C(=O)N[C@H]4C(=O)N[C@H]3C(=O)N[C@@H]2C(=O)N[C@H](C(=O)O)c2cc(O)cc(O)c2-c2cc3ccc2O)O[C@H](CO)[C@@H](O)[C@@H]1O | 45 | > 100 | 256 (≈ 151 µM) | 0.0625 (≈ 0.0368 µM) | > 100 | 45 | > 100 | 52 | ≥ 45 | 1 (≈ 0.589 µM) | 0.0313 (≈ 0.0185 µM) | 1 (≈ 0.589 µM) | 0.125 (≈ 0.0737 µM) | 256 (≈ 151 µM) | 2 (≈ 1.18 µM) | 256 (≈ 151 µM) | 1 (≈ 0.589 µM) | 0.5 (≈ 0.295 µM) | 0.0075 (≈ 0.00442 µM) | 32 (≈ 18.9 µM) | MIC [9]: 0.015 µg/mL (≈ 0.00884 µM); MBC (Staphylococcus aureus [10]): 1 µg/mL (≈ 0.589 µM); MIC (Staphylococcus aureus [10]): 0.0075 µg/mL (≈ 0.00442 µM); MCC [11]: ≥ 100 µM; EC50 (Human alphaherpesvirus 2): 40 µM; MCC [12]: < 800 nM
